In PMC10301922, “Anti-Oxidant, Anti-Mutagenic Activity and Safety Evaluation of Antrocin” (Toxics, 2023):
Converted amounts (≈) assume the structure as drawn. Like-named read-outs stand apart in the source and are kept apart here.

What was measured:
[1] = test system: Salmonella typhimurium TA100
Sprague Dawley rats = assay: 28-day oral toxicity test: serum biochemistry
[2] = Solubility in 95% ethanol; type: physicochemical; details: organic solvent or mixture
Protocol: Optical pure antrocin, with a purity > 95%, was provided by Professor Zhen Yang at the School of Chemical Biology and Biotechnology, Peking University. […] A 50 mg/mL ethanol solution of antrocin was prepared as a stock solution, and was diluted before testing. All of the samples were stored at 4 °C.

[3] = Trolox equivalent antioxidant capacity (TEAC); details: 10 mg/mL antrocin
Protocol: The following methodology describes the TEAC assay: Add 40 μL of sample to a 96-well plate and adjust the volume to 100 μL with ddH2O. The absorbance of the sample should be within the linear range of the standard curve (0–20 nmol/well). The detection limit of this assay is approximately 0.1 nmol (or 1 µM) Trolox per well. For Trolox Standard Curve Preparation, dissolve lyophilized Trolox Standard in 20 µL of pure DMSO, add 980 µL of distilled water and mix well to generate a 1 mM solution, then aliquot the solution and store it at −20 °C for stable storage for 4 months. Add 0, 4, 8, 12, 16, 20 µL of Trolox standard to each well. Adjust the total volume to 100 µL with ddH2O to obtain 0, 4, 8, 12, 16, 20 nmol of Trolox standards, respectively. For preparation of working solutions, dilute 1 part of Cu^2+ reagent with 49 parts of Assay Diluent, and dilute enough working solution for detection. Add 100 µL of Cu^2+ working solution to standard wells and sample wells. After capping the plate and reacting at room temperature for 1.5 h, measure the absorbance at 570 nm. Draw a Trolox standard curve by subtracting the 0 nmol standard reading from all standard curve readings. […]
• Sa = the amount of sample (in nmol) read from the standard curve. • Sv = the undiluted sample volume added to the well.

[4] = test system: Salmonella typhimurium TA1537; assay: Ames test (plate incorporation), TA1537
[5] = female rats, 7.5 mg/kg oral 28 d
[6] = female rats, 37.5 mg/kg oral 28 d
[7] = male rats, 37.5 mg/kg oral 28 d

Structure (SMILES): C=C1CC[C@H]2C(C)(C)CCC[C@@]23C(=O)OC[C@@H]13 [Antrocin, (-)-Antrocin]
- Number of Revertant ([1]; TA100, with S9, 0.003125 mg/plate): 194.3 ± 5.4 Colony/Plate
- Number of Revertant ([1]; TA100, with S9, 0.00625 mg/plate): 185.0 ± 6.5 Colony/Plate
- Number of Revertant ([1]; TA100, with S9, 0.025 mg/plate): 197.0 ± 8.8 Colony/Plate
- Number of Revertant ([1]; TA100, with S9, 0.05 mg/plate): 195.3 ± 2.9 Colony/Plate
- Number of Revertant ([1]; TA100, without S9, 0.003125 mg/plate): 170.7 ± 1.2 Colony/Plate
- Number of Revertant ([1]; TA100, without S9, 0.00625 mg/plate): 169.3 ± 8.2 Colony/Plate
- Number of Revertant ([1]; TA100, without S9, 0.025 mg/plate): 181.7 ± 5.7 Colony/Plate
- Number of Revertant ([1]; TA100, without S9, 0.05 mg/plate): 166.7 ± 4.5 Colony/Plate
- bacterial mutagenicity ([1]; preliminary tests, TA100, 100 μg/plate): no bacterial mutagenicity
- A/G (Sprague Dawley rats; [5]): 1.9 ± 0.2
- ALP (Sprague Dawley rats; [5]): 147.4 ± 27.6 U/L
- ALT (Sprague Dawley rats; [5]): 24.2 ± 1.9 U/L
- AST (Sprague Dawley rats; [5]): 58.0 ± 8.5 U/L
- Albumin (Sprague Dawley rats; [5]): 3.7 ± 0.2 g/dL
- Amylase (Sprague Dawley rats; [5]): 1280.6 ± 111.3 U/L
- BUN (Sprague Dawley rats; [5]): 12.0 ± 1.0 mg/dL
- CK (Sprague Dawley rats; [5]): 100.2 ± 30.8 U/L
- Ca^2+ (Sprague Dawley rats; [5]): 9.9 ± 0.1 mg/dL
- Cholesterol (Sprague Dawley rats; [5]): 51.2 ± 9.8 mg/dL
- Creatinine (Sprague Dawley rats; [5]): 0.4 ± 0.0 mg/dL
- GGT (Sprague Dawley rats; [5]): 1–2 U/L
- Globulin (Sprague Dawley rats; [5]): 1.9 ± 0.1 g/dL
- Glucose (Sprague Dawley rats; [5]): 182.4 ± 42.9 mg/dL
- HDL-C (Sprague Dawley rats; [5]): 16.0 ± 3.4 mg/dL
- K^+ (Sprague Dawley rats; [5]): 5.2 ± 0.2
- LDH (Sprague Dawley rats; [5]): 92.4 ± 73.8 U/L
- Mg^2+ (Sprague Dawley rats; [5]): 2.1 ± 0.1
- Na^+ (Sprague Dawley rats; [5]): 139.2 ± 1.6
- Phosphate (Sprague Dawley rats; [5]): 8.5 ± 1.0 mg/dL
- TB (Sprague Dawley rats; [5]): <0.1 mg/dL
- TG (Sprague Dawley rats; [5]): 32.8 ± 5.2 mg/dL
- TP (Sprague Dawley rats; [5]): 5.6 ± 0.2
- UA (Sprague Dawley rats; [5]): 0.9 ± 0.1 mg/dL
- A/G (Sprague Dawley rats; [6]): 1.7 ± 0.1
- ALP (Sprague Dawley rats; [6]): 116.4 ± 35.7 U/L
- ALT (Sprague Dawley rats; [6]): 32.6 ± 6.2 U/L
- AST (Sprague Dawley rats; [6]): 72.6 ± 7.4 U/L
- Albumin (Sprague Dawley rats; [6]): 3.8 ± 0.2 g/dL
- Amylase (Sprague Dawley rats; [6]): 1240.4 ± 239.9 U/L
- BUN (Sprague Dawley rats; [6]): 11.0 ± 0.7 mg/dL
- CK (Sprague Dawley rats; [6]): 129.8 ± 59.5 U/L
- Ca^2+ (Sprague Dawley rats; [6]): 10.2 ± 0.2 mg/dL
- Cholesterol (Sprague Dawley rats; [6]): 47.0 ± 11.8 mg/dL
- Cl^− (Sprague Dawley rats; [6]): 104.2 ± 1.3
- Creatinine (Sprague Dawley rats; [6]): 0.3 ± 0.1 mg/dL
- GGT (Sprague Dawley rats; [6]): 1–2 U/L
- Globulin (Sprague Dawley rats; [6]): 2.2 ± 0.1 g/dL
- Glucose (Sprague Dawley rats; [6]): 138.2 ± 21.7 mg/dL
- HDL-C (Sprague Dawley rats; [6]): 14.6 ± 3.8 mg/dL
- K^+ (Sprague Dawley rats; [6]): 5.0 ± 0.7
- LDH (Sprague Dawley rats; [6]): 125.4 ± 96.2 U/L
- Mg^2+ (Sprague Dawley rats; [6]): 2.4 ± 0.3
- Na^+ (Sprague Dawley rats; [6]): 142.6 ± 1.1
- Phosphate (Sprague Dawley rats; [6]): 8.5 ± 0.5 mg/dL
- TB (Sprague Dawley rats; [6]): <0.1 mg/dL
- TG (Sprague Dawley rats; [6]): 27.2 ± 8.1 mg/dL
- TP (Sprague Dawley rats; [6]): 6.0 ± 0.3
- UA (Sprague Dawley rats; [6]): 1.3 ± 0.6 mg/dL
- A/G (Sprague Dawley rats; male rats, 7.5 mg/kg oral 28 d): 1.8 ± 0.1
- ALP (Sprague Dawley rats; male rats, 7.5 mg/kg oral 28 d): 238.4 ± 43.9 U/L
- ALT (Sprague Dawley rats; male rats, 7.5 mg/kg oral 28 d): 28.2 ± 3.1 U/L
- AST (Sprague Dawley rats; male rats, 7.5 mg/kg oral 28 d): 61.4 ± 4.3 U/L
- Albumin (Sprague Dawley rats; male rats, 7.5 mg/kg oral 28 d): 3.4 ± 0.1 g/dL
- Amylase (Sprague Dawley rats; male rats, 7.5 mg/kg oral 28 d): 1931.0 ± 241.1 U/L
- BUN (Sprague Dawley rats; male rats, 7.5 mg/kg oral 28 d): 11.2 ± 1.3 mg/dL
- CK (Sprague Dawley rats; male rats, 7.5 mg/kg oral 28 d): 185.6 ± 96.1 U/L
- Ca^2+ (Sprague Dawley rats; male rats, 7.5 mg/kg oral 28 d): 9.7 ± 0.2 mg/dL
- Cholesterol (Sprague Dawley rats; male rats, 7.5 mg/kg oral 28 d): 41.2 ± 6.3 mg/dL
- Creatinine (Sprague Dawley rats; male rats, 7.5 mg/kg oral 28 d): 0.3 ± 0.0 mg/dL
- GGT (Sprague Dawley rats; male rats, 7.5 mg/kg oral 28 d): <1 U/L
- Globulin (Sprague Dawley rats; male rats, 7.5 mg/kg oral 28 d): 1.9 ± 0.1 g/dL
- Glucose (Sprague Dawley rats; male rats, 7.5 mg/kg oral 28 d): 178.0 ± 25.7 mg/dL
- HDL-C (Sprague Dawley rats; male rats, 7.5 mg/kg oral 28 d): 12.8 ± 1.5 mg/dL
- K^+ (Sprague Dawley rats; male rats, 7.5 mg/kg oral 28 d): 6.5 ± 0.3
- LDH (Sprague Dawley rats; male rats, 7.5 mg/kg oral 28 d): 219.6 ± 139.5 U/L
- Mg^2+ (Sprague Dawley rats; male rats, 7.5 mg/kg oral 28 d): 2.0 ± 0.1
- Na^+ (Sprague Dawley rats; male rats, 7.5 mg/kg oral 28 d): 141.8 ± 0.8
- Phosphate (Sprague Dawley rats; male rats, 7.5 mg/kg oral 28 d): 9.1 ± 0.9 mg/dL
- TB (Sprague Dawley rats; male rats, 7.5 mg/kg oral 28 d): <0.1 mg/dL
- TG (Sprague Dawley rats; male rats, 7.5 mg/kg oral 28 d): 33.0 ± 8.1 mg/dL
- TP (Sprague Dawley rats; male rats, 7.5 mg/kg oral 28 d): 5.3 ± 0.2
- UA (Sprague Dawley rats; male rats, 7.5 mg/kg oral 28 d): 1.5 ± 0.1 mg/dL
- A/G (Sprague Dawley rats; [7]): 1.8 ± 0.1
- ALP (Sprague Dawley rats; [7]): 256.8 ± 44.0 U/L
- ALT (Sprague Dawley rats; [7]): 27.6 ± 2.1 U/L
- AST (Sprague Dawley rats; [7]): 60.2 ± 3.3 U/L
- Albumin (Sprague Dawley rats; [7]): 3.5 ± 0.2 g/dL
- Amylase (Sprague Dawley rats; [7]): 2016.4 ± 289.7 U/L
- BUN (Sprague Dawley rats; [7]): 11.6 ± 1.8 mg/dL
- CK (Sprague Dawley rats; [7]): 156.4 ± 31.1 U/L
- Ca^2+ (Sprague Dawley rats; [7]): 9.9 ± 0.4 mg/dL
- Cholesterol (Sprague Dawley rats; [7]): 44.0 ± 2.5 mg/dL
- Cl^− (Sprague Dawley rats; [7]): 104.6 ± 2.1
- Creatinine (Sprague Dawley rats; [7]): 0.3 ± 0.0 mg/dL
- GGT (Sprague Dawley rats; [7]): <1 U/L
- Globulin (Sprague Dawley rats; [7]): 2.0 ± 0.2 g/dL
- Glucose (Sprague Dawley rats; [7]): 178.0 ± 14.5 mg/dL
- HDL-C (Sprague Dawley rats; [7]): 15.2 ± 2.8 mg/dL
- K^+ (Sprague Dawley rats; [7]): 6.4 ± 0.6
- LDH (Sprague Dawley rats; [7]): 109.8 ± 33.5 U/L
- Mg^2+ (Sprague Dawley rats; [7]): 2.1 ± 0.2
- Na^+ (Sprague Dawley rats; [7]): 141.4 ± 2.3
- Phosphate (Sprague Dawley rats; [7]): 9.6 ± 1.6 mg/dL
- TB (Sprague Dawley rats; [7]): <0.1 mg/dL
- TG (Sprague Dawley rats; [7]): 46.2 ± 8.3 mg/dL
- TP (Sprague Dawley rats; [7]): 5.5 ± 0.4
- UA (Sprague Dawley rats; [7]): 1.6 ± 0.3 mg/dL
- solubility [2]: ~133 mg/mL (≈ 568 mM)
- Trolox Equivalent Antioxidant Capacity (mM Trolox Equivalents) [3]: 0.508 ± 0.003 mM Trolox equivalents
- Number of Revertant ([4]; TA1537, with S9, 0.003125 mg/plate): 11.7 ± 1.9 Colony/Plate
- Number of Revertant ([4]; TA1537, with S9, 0.00625 mg/plate): 6.7 ± 2.4 Colony/Plate
- Number of Revertant ([4]; TA1537, with S9, 0.025 mg/plate): 10.3 ± 2.1 Colony/Plate
- Number of Revertant ([4]; TA1537, with S9, 0.05 mg/plate): 6.0 ± 1.4 Colony/Plate
- Number of Revertant ([4]; TA1537, without S9, 0.003125 mg/plate): 14.3 ± 2.6 Colony/Plate
- Number of Revertant ([4]; TA1537, without S9, 0.00625 mg/plate): 8.7 ± 0.5 Colony/Plate
- Number of Revertant ([4]; TA1537, without S9, 0.025 mg/plate): 13.0 ± 2.2 Colony/Plate
- Number of Revertant ([4]; TA1537, without S9, 0.05 mg/plate): 9.7 ± 0.9 Colony/Plate
